Data set [1] concerns NO production in RAW264.7 macrophages. Kind of data set: Inhibition of NO production in IFNγ-treated RAW264.7 macrophages (Griess reagent). In kind it is cell-based, mouse. The conditions noted are these: Mus musculus, RAW264.7, RAW264.7 macrophages pre-treated 2 hours, then 20 ng/ml IFNγ for 24 hours. The method, then: (§1) FIGS. 1-4, 6 and 8. Inhibition of NO Production. RAW264.7 macrophages were pre-treated with DMSO or drugs at various concentrations (nM) for 2 hours, then treated with 20 ng/ml IFNγ for 24 hours. NO concentration in media was determined using a Griess reagent system; cell viability was determined using WST-1 reagent.
(§2) Nitric Oxide production and cell viability. RAW264.7 macrophages were pre-treated with DMSO or drugs for 2 hours, then treated with recombinant mouse IFNγ (Sigma) for 24 hours. NO concentration in media was determined using the Griess reagent system (Promega). Cell viability was determined using WST-1 reagent (Roche).

Data set [2] concerns γ-GCS. As to the kind of experiment: Nrf2 target gene induction, MDA-MB-435 (qPCR): γ-GCS. It is filed as cell-based. As to conditions: Homo sapiens; MDA-MB-435, 250 nM, 16 hours, mRNA by qPCR. The method, then:
(§3) Nrf2 target gene induction. MDA-MB-435 human melanoma cells were treated with vehicle (DMSO) or the indicated compounds and concentrations for 16 hours. HO-1, thioredoxin reductase-1 (TrxR1), γ-glutamylcysteine synthetase (γ-GCS), and ferritin heavy chain mRNA levels were quantified using qPCR and were normalized relative to a DMSO-treated sample run in parallel. Values are averages of duplicate wells. Primer sequences are as follows.

The subject of data set [3] is NQO1. As to the kind of experiment: Nrf2 target gene induction, MDA-MB-435 (qPCR): NQO1. In kind it is cell-based. The conditions noted are these: Homo sapiens; MDA-MB-435, 250 nM, 16 hours, mRNA by qPCR. Background: Real-time PCR tracks product formation cycle by cycle.
Data set [4] concerns RAW264.7 macrophages. As to the kind of experiment: Cell viability of RAW264.7 macrophages (WST-1 reagent). In kind it is cell-based, mouse. As to conditions: Mus musculus, RAW264.7, 24 h, cell viability, RAW264.7, 20 ng/ml IFNγ 24 hours, WST-1 reagent; read-out: RAW264.7 (20 ng/ml IFNγ) WST-1 IC50. The method, then:
as §1, §2
Background: Tetrazolium assays rely on reduction of a dye to a coloured formazan, in cell work by metabolically active cells.

The subject of data set [5] is HO-1. As to the kind of experiment: Nrf2 target gene induction, MDA-MB-435 (qPCR): HO-1. It is filed as cell-based. As to conditions: Homo sapiens; MDA-MB-435, 250 nM, 16 hours, mRNA by qPCR. The method, then: as §3
Data set [6] is described as follows: Aqueous solubility determination (Millipore Multiscreen solubility filter plate, UV/vis). It is filed as physicochemical. As to conditions: Universal Aqueous Buffer pH 7.4, 90 minutes at room temperature. The method, then: Aqueous Solubility Determination. The following procedure was used to obtain the aqueous solubility results summarized in Example 4. Step 1. Determination of optimal UV/vis wavelengths and generation of standard curves for a compound of interest: • (1) For eight standard calibration curves (one plate), prepare 34 mL of 50:50 (v:v) universal buffer:acetonitrile in a 50 mL tube. • (2) Using a multichannel pipet, dispense (in μL) the buffer:acetonitrile in a deep well plate as follows:
• (6) Cover plate with lid and shake (200-300 rpm) at room temperature for 20 minutes. • (7) Mix all wells by pipetting up and down 10 times. • (8) Transfer 120 μL from each well to a UV transparent plate. Cover and shake for 3-5 minutes. Remove any bubbles in the wells using a pipet. • (9) Read from 220 nm to 500 nm at 10 nm increments on a spectrophotometer (e.g., SpectraMax®).
Step 2. […]
Solubility Protocol: • (a) Add 285 μL of Universal Aqueous Buffer to desired wells of the Millipore™ Multiscreen® Solubility filter plate. • (b) Add 15 μL of 10 mM compound in DMSO to the appropriate wells. […] Remove any bubbles with a pipet. • (i) Measure the absorbance of each well in the plate on the spectrophotometer (UV/vis) at the desired wavelength. […]
The aqueous solubility of the compounds shown here was determined using the procedures outlined in Example 1.

Data set [7] in a line: TP levels in mouse brain after feeding in diet (LC/MS). In kind it is in vivo. The conditions noted are these: CD-1 mice fed 200 or 400 mg/kg diet for 3.5 days. As for the experimental part:
FIG. 7. […] CD-1 mice were fed either 200 or 400 mg/kg diet of either TP-319 or TP-500 for 3.5 days, and TP levels in the brains of the mice were analyzed by LC/MS. The structures of TP-319 and TP-500 are shown herein.

Structures are written as SMILES.

Consider 10 compounds from patent US8394967B2, “Antioxidant inflammation modulators: C-17 homologated oleanolic acid derivatives” (Reata Pharmaceuticals, Inc., priority 2008, dated 2013).

As to `CC1(C)CC[C@]2([C@@H](O)CO)CC[C@]3(C)[C@H](C(=O)C[C@@H]4[C@@]5(C)C=C(C#N)C(=O)C(C)(C)[C@@H]5CC[C@]43C)[C@@H]2C1` [Compound 63221, (4aR,6aR,6bR,8aS,12aS,12bR,14aR,14bR)-8a-((R)-1,2-dihydroxyethyl)-4,4,6a,6b,11,11,14b-heptamethyl-3,13-dioxo-3,4,4a,5,6,6a,6b,7,8,8a,9,10,11,12,12a,12b,13,14,14a,14b-icosahydropicene-2-carbonitrile], the IC50 in data set [1] was roughly 15 nM; in data set [4], greater than 200 nM. Further, the fold induction (usually the signal under treatment as a multiple of the control signal) at 0.25 µM in data set [2] stood at 4.5; in data set [3], 2; in data set [5], 2.
With `CC1(C)CC[C@]2(CNC(=O)C(F)(F)F)CC[C@]3(C)[C@H](C(=O)C[C@@H]4[C@@]5(C)C=C(C#N)C(=O)C(C)(C)[C@@H]5CC[C@]43C)[C@@H]2C1` [Compound 63226, N-(((4aS,6aR,6bR,12aR,14aR,14bS)-11-cyano-2,2,6a,6b,9,9,12a-heptamethyl-10,14-dioxo-1,2,3,4,4a,5,6,6a,6b,7,8,8a,9,10,12a,12b,13,14,14a,14b-icosahydropicen-4a-yl)methyl)-2,2,2-trifluoroacetamide], the figures for the IC50 in data set [1] and in data set [4] were roughly 12 nM and greater than 200 nM, respectively. In addition, the fold induction at 0.25 µM amounted to 6 in data set [2], 2 in data set [3] and 4 in data set [5].
As to `CC1(C)CC[C@]2(CN)CC[C@]3(C)[C@H](C(=O)C[C@@H]4[C@@]5(C)C=C(C#N)C(=O)C(C)(C)[C@@H]5CC[C@]43C)[C@@H]2C1` [Compound 63214, (6aR,6bR,8aS,12aS,12bR,14bR)-8a-(aminomethyl)-4,4,6a,6b,11,11,14b-heptamethyl-3,13-dioxo-3,4,4a,5,6,6a,6b,7,8,8a,9,10,11,12,12a,12b,13,14,14a,14b-icosahydropicene-2-carbonitrile], the results for the IC50 in data set [1] and in data set [4] were roughly 25 nM and greater than 200 nM, respectively. In addition, the values for the fold induction at 0.25 µM in data set [2], in data set [3] and in data set [5] were 3, 1.8 and 2, respectively.
With `CC1(C)CC[C@]2(N)CC[C@]3(C)[C@H](C(=O)C[C@@H]4[C@@]5(C)C=C(C#N)C(=O)C(C)(C)[C@@H]5CC[C@]43C)[C@@H]2C1` [Compound 63208], the Aqueous Solubility (as a rule, the dissolved amount per volume that the medium holds) in data set [6] worked out at 9.49 µM.
Turning to `CC1(C)CC[C@]2(N)CC[C@]3(C)[C@H](C(=O)C[C@@H]4[C@@]5(C)C=C(C#N)C(=O)C(C)(C)[C@@H]5CC[C@]43C)[C@@H]2C1` [Compound 63198], the “Aqueous Solubility” value in data set [6] is 163.6 µM.
In the case of `CC1(C)CC[C@]2(CNCC#N)CC[C@]3(C)[C@H](C(=O)C[C@@H]4[C@@]5(C)C=C(C#N)C(=O)C(C)(C)[C@@H]5CC[C@]43C)[C@@H]2C1` [Compound 63218, (4aR,6aR,6bR,8aS,12aS,12bR,14aR,14bR)-8a-((cyanomethylamino)methyl)-4,4,6a,6b,11,11,14b-heptamethyl-3,13-dioxo-3,4,4a,5,6,6a,6b,7,8,8a,9,10,11,12,12a,12b,13,14,14a,14b-icosahydropicene-2-carbonitrile], the IC50 in data set [1] is roughly 25 nM; in data set [4], greater than 200 nM. Besides, the fold induction at 0.25 µM in data set [2] was 10; in data set [3], 3.4; in data set [5], 3.
Regarding `CC1(C)CC[C@]2(CCO)CC[C@]3(C)[C@H](C(=O)C[C@@H]4[C@@]5(C)C=C(C#N)C(=O)C(C)(C)[C@@H]5CC[C@]43C)[C@@H]2C1` [Compound 63231, (4aR,6aR,6bR,8aR,12aS,12bR,14aR,14bR)-8a-(2-hydroxyethyl)-4,4,6a,6b,11,11,14b-heptamethyl-3,13-dioxo-3,4,4a,5,6,6a,6b,7,8,8a,9,10,11,12,12a,12b,13,14,14a,14b-icosahydropicene-2-carbonitrile], the IC50 in data set [1] was roughly 15 nM; in data set [4] it was greater than 200 nM. Also, the fold induction at 0.25 µM in data set [2] amounted to 5; in data set [3] it was 2.1; in data set [5], 1.2.
Take `CC1(C)CC[C@]2(C(=O)NCC(F)(F)F)CC[C@]3(C)[C@H](C(=O)C=C4[C@@]5(C)C=C(C#N)C(=O)C(C)(C)[C@@H]5CC[C@]43C)[C@@H]2C1` [TP-500]: the “TP levels in the brains of the mice” value in data set [7] is on record as “Higher Levels in Mouse Brain than CDDO-EA (TP-319)”.
Consider `CC1(C)CC[C@]2(CNC(=O)OC(C)(C)C)CC[C@]3(C)[C@H](C(=O)CC4[C@@]5(C)C=C(C#N)C(=O)C(C)(C)C5CC[C@]43C)[C@@H]2C1` (stereo partly drawn) [Compound 63253, tert-butyl((4aS,6aR,6bR,12aR,14aR,14bS)-11-cyano-2,2,6a,6b,9,9,12a-heptamethyl-10,14-dioxo-1,2,3,4,4a,5,6,6a,6b,7,8,8a,9,10,12a,12b,13,14,14a,14b-icosahydropicen-4a-yl)methylcarbamate], for which the figures for the IC50 in data set [1] and in data set [4] were roughly 20 nM and roughly 200 nM, respectively. In addition, the values for the fold induction at 0.25 µM in data set [2], in data set [3] and in data set [5] were 3, 1.5 and 2, respectively.
Consider `CC1(C)CC[C@]2(CNS(=O)(=O)CC(F)(F)F)CC[C@]3(C)[C@H](C(=O)C[C@@H]4[C@@]5(C)C=C(C#N)C(=O)C(C)(C)[C@@H]5CC[C@]43C)[C@@H]2C1` [Compound 63225, N-(((4aS,6aR,6bR,8aR,12aR,12bR,14aR,14bS)-11-cyano-2,2,6a,6b,9,9,12a-heptamethyl-10,14-dioxo-1,2,3,4,4a,5,6,6a,6b,7,8,8a,9,10,12a,12b,13,14,14a,14b-icosahydropicen-4a-yl)methyl)-2,2,2-trifluoroethanesulfonamide], for which the IC50 in data set [1] was roughly 20 nM; in data set [4], greater than 200 nM. Also, the results for the fold induction at 0.25 µM in data set [2], in data set [3] and in data set [5] were 6.5, 2.4 and 4, respectively.
